Consider ten molecules from ChEMBL document CHEMBL1201862, “PubChem BioAssay data set” (2004).

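Cells were grown in 96-well plates and exposed to each compound for 48 hours at five concentrations; endpoints were interpolated linearly between bracketing concentrations, or set to the highest concentration if not reached. GI50 marks 50% less growth.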 Calls of active or inactive are those of the source. Cut-off read from the data, not from the text of the source: active = GI50 up to about 1.1 µM and inactive = higher. Where a SMILES comes first, the peptide text is derived from it. The star is where a group is joined. Boc = CC(C)(C)OC(=O)*; tBu = CC(C)(C)* Where only a bound is given, the exact number is not on record here.

Test systems include LOX IMVI; COLO 205; NCI-H23; OVCAR-5; SF-539; UACC-257; NCI-H226; ACHN; 786-0; DLD-1; EKVX; CAKI-1; RPMI-8226; Malme-3M; KM12; SNB-75; DU-145; Hs-578T; SK-MEL-2.
What all share (experiment): inhibition of tumour cell growth, NCI panel, 48 h

Take `O=C(CC1=Nc2nnc(CCCCCCCc3nnc4n3C(=O)C(CC(=O)c3ccccc3)=N4)n2C1=O)c1ccccc1`: the GI50 in the test with LOX IMVI, in the test on COLO 205, in the test with NCI-H23, in the test on OVCAR-5, in the test on SF-539 and in the test on UACC-257 was > 100 µM (inactive) in each case. The GI50 in the test on NCI-H226, with ACHN, in the test with 786-0, in the test with DLD-1, in the test on EKVX and in the test with CAKI-1 was > 100 µM (inactive) throughout. Moreover, the GI50 in the test on RPMI-8226, in the test with Malme-3M, in the test with KM12 and with SNB-75 was > 100 µM (inactive) each time.

Take `CN(C)CCn1c(=O)c2ccc(NCCN3CCNCC3)c3c(=O)c4ccccc4n(c1=O)c23`: the GI50 in the test on LOX IMVI was 1.69 µM (inactive); in the test with DU-145, 3.39 µM (inactive); in the test with COLO 205 it was 1.35 µM (inactive); in the test with Hs-578T, 3.04 µM (inactive); in the test on NCI-H23 it was 2.3 µM (inactive); with OVCAR-5 it was 8.47 µM (inactive). Further, the GI50 was 0.473 µM (active) in the test with SF-539; 4.07 µM (inactive) in the test on UACC-257; 2.38 µM (inactive) with NCI-H226; 1.27 µM (inactive) in the test on ACHN; 0.358 µM (active) with 786-0; 1.87 µM (inactive) in the test with EKVX. Also, the GI50 in the test with CAKI-1 was 2.04 µM (inactive); in the test with RPMI-8226 it was 0.251 µM (active); with Malme-3M, 4.12 µM (inactive); in the test on KM12 it was 1.63 µM (inactive); with SNB-75 it was 2.13 µM (inactive); with SK-MEL-2, 2.56 µM (inactive).

Regarding `Cc1nn(C(=O)c2ccncc2)c2c1C(c1ccccc1)SC(=N)N2` (stereo not drawn), the GI50 in the test with LOX IMVI, in the test on DU-145, with COLO 205, in the test on Hs-578T, with NCI-H23 and with OVCAR-5 was > 10 µM (inactive) in each case. In addition, the GI50 in the test on SF-539, in the test on UACC-257, in the test on NCI-H226, with ACHN, in the test on 786-0 and with EKVX was > 10 µM (inactive) in each case. Besides, the GI50 with CAKI-1, in the test on RPMI-8226, in the test on Malme-3M, in the test on KM12, in the test on SNB-75 and with SK-MEL-2 was > 10 µM (inactive) throughout.

Regarding `CC(OC(C)(C)C)C(NC(=O)C(N)CCCCNC(=O)OC(C)(C)C)C(=O)NC(Cc1ccccc1)C(=O)O` (stereo not drawn) (H-Lys(Boc)-Thr(tBu)-Phe-OH; configuration not given here), the GI50 with LOX IMVI, with DU-145, in the test on COLO 205, with Hs-578T, with NCI-H23 and in the test on OVCAR-5 was > 100 µM (inactive) each time. Also, the GI50 in the test on SF-539, with UACC-257, in the test on NCI-H226, in the test with ACHN, with 786-0 and in the test on EKVX was > 100 µM (inactive) each time. In addition, the GI50 in the test on CAKI-1, with RPMI-8226, in the test on Malme-3M, in the test with KM12, with SNB-75 and in the test with SK-MEL-2 was > 100 µM (inactive) throughout.

In the case of `O=C(O)C1C2C=CC(O2)C1C(=O)NCc1cccnc1` (stereo not drawn), the GI50 was > 100 µM (inactive) in the test on LOX IMVI; > 100 µM (inactive) in the test on DU-145; > 100 µM (inactive) with COLO 205; 51.8 µM (inactive) in the test on Hs-578T; > 100 µM (inactive) in the test on NCI-H23; > 100 µM (inactive) in the test with OVCAR-5. The GI50 in the test with SF-539 is > 100 µM (inactive); in the test with UACC-257, 72.6 µM (inactive); in the test with NCI-H226 it was > 100 µM (inactive); in the test on ACHN, > 100 µM (inactive); in the test on 786-0, > 100 µM (inactive); in the test on EKVX, > 100 µM (inactive). The GI50 in the test on CAKI-1, with RPMI-8226, with Malme-3M, in the test on KM12, in the test on SNB-75 and with SK-MEL-2 was > 100 µM (inactive) each time.

For `O=C(O)c1cc(=O)c2c(OCC(O)COc3cccc4oc(C(=O)O)cc(=O)c34)cccc2o1`, the GI50 in the test on LOX IMVI was > 61.4 µM (inactive); in the test on DU-145 it was > 100 µM (inactive); in the test with COLO 205 it was > 68.4 µM (inactive); with Hs-578T, > 72.4 µM (inactive); in the test on NCI-H23, > 84.3 µM (inactive); in the test with OVCAR-5, > 84.3 µM (inactive). Also, the GI50 is 98.2 µM (inactive) in the test on SF-539; > 80.4 µM (inactive) in the test with UACC-257; > 100 µM (inactive) in the test with NCI-H226; > 100 µM (inactive) in the test with ACHN; > 100 µM (inactive) in the test on 786-0; > 96.6 µM (inactive) in the test with EKVX. In addition, the GI50 was > 100 µM (inactive) in the test with CAKI-1; > 70.1 µM (inactive) with RPMI-8226; > 75.3 µM (inactive) with Malme-3M; > 85.9 µM (inactive) with KM12; > 61 µM (inactive) in the test with SNB-75; > 56.4 µM (inactive) in the test on SK-MEL-2.

For the molecule `N#CC(C#N)=Cn1c(=S)[nH]c2ccc([N+](=O)[O-])cc21`, the GI50 with LOX IMVI is > 100 µM (inactive); in the test on DU-145 it was > 100 µM (inactive); in the test with COLO 205, > 100 µM (inactive); in the test with Hs-578T, 60.8 µM (inactive); in the test with NCI-H23, > 100 µM (inactive); in the test on OVCAR-5, > 100 µM (inactive). Further, the GI50 in the test with SF-539, in the test on UACC-257, with NCI-H226, in the test with ACHN, in the test with 786-0 and with EKVX was > 100 µM (inactive) in each case. Further, the GI50 was 71.4 µM (inactive) in the test with CAKI-1; > 100 µM (inactive) in the test with RPMI-8226; > 100 µM (inactive) in the test with Malme-3M; > 100 µM (inactive) in the test on KM12; 15.2 µM (inactive) in the test with SNB-75; > 100 µM (inactive) in the test on SK-MEL-2.

For the molecule `CC(=O)O[C@H]1C[C@@H](O[C@H]2[C@@H](O)C[C@H](O[C@H]3[C@@H](O)C[C@H](O[C@H]4CC[C@@]5(C)[C@H](CC[C@@H]6[C@@H]5C[C@@H](O)[C@]5(C)[C@@H](C7=CC(=O)OC7)CC[C@]65O)C4)O[C@@H]3C)O[C@@H]2C)O[C@H](C)[C@H]1O.CC(=O)O[C@H]1[C@@H](O)C[C@@H](O[C@H]2[C@@H](O)C[C@H](O[C@H]3[C@@H](O)C[C@H](O[C@H]4CC[C@@]5(C)[C@H](CC[C@@H]6[C@@H]5C[C@@H](O)[C@]5(C)[C@@H](C7=CC(=O)OC7)CC[C@]65O)C4)O[C@@H]3C)O[C@@H]2C)O[C@@H]1C`, the GI50 was 0.0313 µM (active) with LOX IMVI; 0.0192 µM (active) in the test on DU-145; 0.0472 µM (active) in the test with COLO 205; 0.0251 µM (active) with Hs-578T; 0.0114 µM (active) with NCI-H23; 0.033 µM (active) in the test with OVCAR-5. Further, the GI50 in the test with SF-539 was 0.0315 µM (active); in the test on UACC-257, 0.0541 µM (active); in the test with NCI-H226, 0.0508 µM (active); with ACHN it was 0.0136 µM (active); in the test with 786-0, 0.0223 µM (active); in the test on EKVX it was 0.0175 µM (active). Further, the GI50 in the test with CAKI-1 is 0.0308 µM (active); in the test on RPMI-8226 it was 0.0395 µM (active); in the test with Malme-3M, 0.0236 µM (active); in the test on KM12, 0.0324 µM (active); in the test on SNB-75 it was 0.0483 µM (active); in the test on SK-MEL-2 it was 0.0679 µM (active).

With `CCC(=C/[C@H](C)C/C=C/C(C)=C/[C@@H](C)C(=O)[C@@H](C)[C@H](O)[C@@H](C)CC)/C=C/[C@H]1CC=CC(=O)O1` [CALLYSTATIN A], the GI50 in the test with LOX IMVI, with DU-145, in the test on COLO 205, with Hs-578T, in the test with NCI-H23 and in the test on OVCAR-5 was < 0.0012 µM (active) each time. Moreover, the GI50 in the test with SF-539 is < 0.0012 µM (active); in the test with UACC-257, < 0.0012 µM (active); in the test on NCI-H226 it was 0.0168 µM (active); in the test with ACHN, < 0.0012 µM (active); in the test on 786-0, < 0.0012 µM (active); in the test on EKVX, < 0.0012 µM (active). Further, the GI50 in the test on CAKI-1 was < 0.0012 µM (active); with RPMI-8226, 2.67 µM (inactive); in the test on Malme-3M it was < 0.0012 µM (active); with KM12 it was < 0.0012 µM (active); in the test with SNB-75, < 0.0012 µM (active); in the test with SK-MEL-2 it was < 0.0012 µM (active).

Take `COc1ccc(/C=N/Nc2nc(=S)[nH]c3[nH]ncc23)cc1`: the GI50 was 33.8 µM (inactive) in the test with LOX IMVI; 36.5 µM (inactive) in the test with DU-145; 18.3 µM (inactive) with COLO 205; > 100 µM (inactive) with Hs-578T; 27.5 µM (inactive) in the test with NCI-H23; 45.5 µM (inactive) with OVCAR-5. Moreover, the GI50 in the test on SF-539 is > 100 µM (inactive); in the test on UACC-257, 55.6 µM (inactive); in the test on NCI-H226, > 100 µM (inactive); in the test on ACHN it was 43.3 µM (inactive); in the test on 786-0, 43.4 µM (inactive); in the test with EKVX, 59.4 µM (inactive). The GI50 with CAKI-1 is 32.7 µM (inactive); with RPMI-8226, 2.5 µM (inactive); in the test on Malme-3M, 38.2 µM (inactive); in the test with KM12 it was 49.9 µM (inactive); in the test with SNB-75 it was > 100 µM (inactive); in the test with SK-MEL-2, 45.7 µM (inactive).
